Source: patent publication US20100029675A1, “Pyrimidine-2, 4-diamine JAK2 Kinase inhibiting anti-inflammation use” (priority 2008, published 2010)

Experiments:
[1] = tested on: JAK2-dependent phosphorylation of STAT3 (phospho-Y705) in AGS gastric cancer cell line; experiment: Western blot of STAT3 phosphorylation in AGS cells; assay type: cell-based; details: 24 hours, 5-10 uM, densitometry
Protocol: (§1) In order to detect specific inhibition of JAK2 enzyme in cell culture, Western blot assays may also be performed. For this, cells which have been treated with a potential JAK2 inhibitor are lysed with a buffer specific for the isolation and preservation of proteins (1% Nonidet P-40, 120 mM NaCl, 30 mM Tris pH 7.4, 1:100 Protease Inhibitor Cocktail III [Calbiochem/EMD Biosciences], 1:100 Phosphatase Inhibitor Cocktail 1 [Sigma-Aldrich, Saint Louis, Mo.], 1:100 Phosphatase Inhibitor Cocktail 2 [Sigma-Aldrich, Saint Louis, Mo.]). The protein concentration in these lysates is then quantified using the BCA Protein Assay Kit (Pierce). Known amounts of protein, e.g. 50 ug, are loaded onto 10% SDS-polyacrylamide gels and are subjected to reducing, denaturing SDS-PAGE. […]
(§2) In this example, Compound 1-4 is shown to reduce the JAK2-dependent phosphorylation of STAT3 and STAT5 in the AGS gastric cancer cell line. […] Following incubation, cells were lysed and total protein isolated and quantified. […] Densitometry analysis was performed in order to quantify the amount of STAT3 and STAT5 phosphorylation in these treated cells. Phospho-STAT3 and phospho-STAT5 were compared to total STAT3 and STAT5 and the proportion of STAT phosphorylation relative to untreated controls was determined.

[2] = tested on: JAK2-dependent phosphorylation of STAT5 (phospho-Y694) in AGS gastric cancer cell line; experiment: Western blot of STAT5 phosphorylation in AGS cells; assay type: cell-based; details: 24 hours, 5-10 uM, densitometry
Protocol: as §1, §2

Question: With `CN1CCN(c2ccc(Nc3nccc(Nc4ccc(F)c(Cl)c4)n3)cc2)CC1` [Compound 1-4, N4-(3-chloro-4-fluorophenyl)-N2-(4-(4-methylpiperazin-1-yl)phenyl)pyrimidine-2,4-diamine] as the molecule, how does the “STAT3 phosphorylation relative to untreated controls” value [1] read?
Answer: Its value is “reduce”.

Question: And the “STAT5 phosphorylation relative to untreated controls” value [2]?
Answer: The value was “reduce”.
